Residues, ends and D or L forms follow the SMILES beside them. *: point of attachment. Palmitoyl = CCCCCCCCCCCCCCCC(=O)*

In this data set the test system is human dermal fibroblasts (HDF). Put plainly: Cytotoxicity, MTS cell viability assay. Type of data set: cell-based. Particulars: HDF, concentrations higher than 20 μM, 24 h. How it is done: To evaluate the cytotoxicity of the peptides, human dermal fibroblasts (HDF) were treated for 24 h, and cell viability was determined via MTS assays (FIG. 13).
Human dermal fibroblast cells (HDF, Detroit 551, ATCC #CCL-110) were cultured in Dulbecco's modified Eagle medium (DMEM; Fisher, Pittsburgh, PA) supplemented with 10% fetal bovine serum (FBS) and 1% penicillin/streptomycin for 24 h. All cells were cultured to 90% confluence in a 37° C., humidified, 5% CO2/95% air environment. Cells at passage numbers of 4-7 were used in these experiments.
The MTS cell viability assay kit (Promega, Madison, WI, USA) was used to determine cytotoxicity of the peptides. First, HDF cells were seeded on a 96-well plate at a cell density of 5,000 cells/well (equal to 15,385 cells/cm^2), and were incubated overnight for cell adhesion. After overnight incubation, the cell medium in each well was replaced by 100 μL of cell culture medium containing various concentrations of peptides (20 μM to 100 μM). The control samples were cells incubated in cell culture medium only. After 24 h, the treatment medium in each well was removed. The cells were washed with phosphate buffered saline (PBS, pH=7.4, Fisher, PA, USA) and 100 μL of fresh cell culture medium was added to each well, followed by the addition of 20 μL of the MTS reagent. After the cells were incubated for 2.5 h, the absorbance was measured at a wavelength of 490 nm by a spectrophotometer (SpectraMax M3, Molecular Devices, Molecular Devices, Sunnyvale, CA, USA). To estimate the cell numbers in each well, a standard curve expressing the linear correlation between different cell densities and optical densities (R^2>0.95) was plotted, and the cell numbers were determined with this standard curve from the OD490 value recorded in each sample. The cell viability of each sample was calculated by: Cell viability=[(cell density per mL of treated sample)/(cell density per mL of control sample)]×100%. Data were expressed by standard error of the mean (±S.E.M.) and N=3, *p<0.05 compared with control samples.
Background: Formazan colour is commonly taken as a measure of viable cells.

On to `CCCCCCCCCCCCCCCC(=O)N[C@H](C(=O)N[C@H](C(=O)N[C@H](C(=O)N[C@H](C(=O)N[C@@H](CCCCN)C(=O)N[C@@H](CCCCN)C(=O)N[C@@H](CCCCN)C(=O)N[C@@H](CCCCN)C(=O)O)C(C)C)C(C)C)C(C)C)C(C)C` [CVK-PA, C16-V4K4 (SEQ ID NO: 1), reference compound] (Palmitoyl-VVVVKKKK-OH), for which the cell death entry is listed as “over 40%”.

Values taken from patent US12319752B2, “Heparin-binding cationic peptide self-assembling peptide amphiphiles useful against drug-resistant bacteria” (priority 2016, dated 2025).
